Assay results taken from patent US6054591A, “Lymph-absorbable aryl substituted imidazole derivatives” (Shionogi & Co., Ltd., priority 1996, dated 2000).
Values after ≈ are worked out from the molar mass of the structure shown. Like-named read-outs stand apart in the source and are kept apart here.

System: HIV (HTLV-IIIB strain)
Assay: Infection inhibitory activity (anti-HIV activity, MTT assay in MT-4 cells)
Format: cell-based
Description: Infection inhibitory activity of the compound
The anti-HIV activity of the representative compounds prepared in the above examples was assayed by the following procedures.
Human T cell line MOLT-4 clone 8 persistently infected by HIV (HTLV-IIIB strain) was cultured in an RPMI-1640 medium supplemented with 10% fetal calf serum, the culture supernatant was filtered, the titer of virus was determined on the filtrate, and the culture supernatant was stored at -80° C. On the other hand, the test compound was diluted with the above culture medium to predetermined concentration range 1 μg/ml to 1 ng/ml and distributed in 50 μl aliquots into a 96-well microtiter plate. Then, a suspension of MT-4 cells was added in 100 μl aliquots (3.5×10^4 cells per well) and then 50 μl (60 pfu (plaque forming units)) per well of the above HIV-containing supernatant diluted with the above culture medium each was added.
The plate was incubated in a CO2 incubator at 37° C. for 5 days. Then, 30 μl/well of 3-(4,5-dimethylthiazol-2-yl)-2,5-[…] (MTT) and 5 mg/ml PBS was added and the incubation was further continued for 1 hour. The surviving cells reducing MTT yield precipitation of formazan. Therefore, 150 μl portions of the culture supernatant were removed from all wells and, instead, 150 μl of a solution (10% Triton X-100 and 0.4% (v/v) HCl added isopropanol) was added. The plate was shaken on a plate mixer to dissolve the formazan. The OD of formazan was measured with a microreader at 560 nm and 690 nm (reference wavelength) and the result was compared with that of control. The cytotoxic effect for the virus was expressed as EC50.

[1] = Human immunodeficiency virus 1, MT4, 120 h, MT-4 cells, HIV HTLV-IIIB, 5 days at 37° C., MTT, read-out: EC50
[2] = Human immunodeficiency virus 1, IIIB, MT4, 120 h

EC50 [1] | SMILES | EC50 [2]
16 ng/mL (≈ 0.0483 µM) | CC(C)c1nc(CO)n(C)c1Sc1cc(Cl)cc(Cl)c1 [Compound 14, 5-(3,5-dichlorophenylthio)-4-isopropyl-1-methyl-2-hydroxymethyl-1H-imidazole] | 
2 ng/mL (≈ 0.00557 µM) | CCn1c(CCO)nc(C(C)C)c1Sc1cc(Cl)cc(Cl)c1 [Compound 54] | 
2.5 to 5 ng/mL (≈ 0.00535 to 0.0107 µM) | CCn1c(CCOC2=CCCCCCC2)nc(C(C)C)c1Sc1cc(Cl)cc(Cl)c1 [Compound 59] | 
8 ng/mL | Cc1cc(C)cc(Sc2c(C(C)C)nc(C)n2COCCOC(=O)CCC(=O)O)c1 [Compound 68, Mono-{2-[5-(3,5-dimethylphenylthio)-4-isopropyl-2-methyl-imidazol-1-yl]methoxyethyl}succinate] | 
8 ng/mL | Cc1nc(C(C)C)c(Sc2cc(Cl)cc(Cl)c2)n1COCCOC(=O)CCC(=O)O [Compound 76, Mono-{2-[5-(3,5-dichlorophenylthio)-4-isopropyl-2-methyl-imidazol-1-ylmethoxy]ethyl succinate] | 
< 8 ng/mL | CCCCCCCCCC(=O)NC(=O)OCc1nc(C(C)C)c(Sc2cc(Cl)cc(Cl)c2)n1Cc1ccncc1 [Compound 92, 5-(3,5-Dichlorophenylthio)-4-isopropyl-1-(4-pyridylmethyl)-1H-imidazol-2-ylmethyl decanoylcarbamate] | 
8 to 16 ng/mL (≈ 0.016 to 0.032 µM) | CCCCCCCCCC(=O)OCc1nc(C(C)C)c(Sc2cc(Cl)cc(Cl)c2)n1CC [Compound 109, 5-(3,5-Dichlorophenylthio)-1-ethyl-4-isopropyl-1H-imidazol-2-ylmethyl decanoate] | 
3 ng/mL (≈ 0.00506 µM) | CCCCN(CCCC)CNC(=O)OCc1nc(C(C)C)c(Sc2cc(Cl)cc(Cl)c2)n1Cc1ccncc1 [Compound 112, 5-(3,5-Dichlorophenylthio)-4-isopropyl-1-(4-pyridylmethyl)-1H-imidazol-2-ylmethyl di-n-butylaminomethylcarbamate] | 
3 to 5 ng/mL (≈ 0.00454 to 0.00757 µM) | CC(C)c1nc(COC(=O)NCN(Cc2ccccc2)Cc2ccccc2)n(Cc2ccncc2)c1Sc1cc(Cl)cc(Cl)c1 [Compound 114, 5-(3,5-Dichlorophenylthio)-4-isopropyl-1-(4-pyridylmethyl)-1H-imidazol-2-ylmethyl dibenzylaminomethylcarbamate] | 

Continued, compound first:

SMILES | EC50 [1] | EC50 [2]
Cc1cc(C)cc(Sc2c(C(C)C)nc(C)n2COCCO)c1 [Compound 1, 5-(3,5-dimethylphenylthio)-4-isopropyl-1-(2-hydroxyethoxymethyl)-2-methyl-1H-imidazole] | 8 ng/mL (≈ 0.0239 µM) | 
Cc1nc(C(C)C)c(Sc2cc(Cl)cc(Cl)c2)n1COCCO [Compound 8, 5-(3,5-Dichlorophenylthio)-4-isopropyl-1-[2-hydroxyethoxymethyl]-2-methyl-1H-imidazole] | 5 ng/mL (≈ 0.0133 µM) | 
Cc1nc(C(C)C)c(Sc2cc(Cl)cc(Cl)c2)n1COCCOC1=CCCCCCC1 [Compound 11, 1-[2-(Cycloocten-1-yloxy)ethoxymethyl]-5-(3,5-dichlorophenylthio)-4-isopropyl-2-methyl-1H-imidazole] | 8 ng/mL (≈ 0.0165 µM) | 
CCn1c(CO)nc(C(C)C)c1Sc1cc(Cl)cc(Cl)c1 [Compound 19, 2-hydroxymethyl-5-(3,5-dichlorophenylthio)-4-isopropyl-1-ethyl-1H-imidazole] | 4 ng/mL (≈ 0.0116 µM) | 
Cc1nc(C(C)C)c(Sc2cc(Cl)cc(Cl)c2)n1COCCOC(=O)CCCCCCCCCCCCCCC(=O)O [Compound 75, Mono-{2-[5-(3,5-dichlorophenylthio)-4-isopropyl-2-methyl-imidazol-1-ylmethoxy]ethyl} hexadecanedioate] | 8 ng/mL (≈ 0.0124 µM) | 
Cc1nc(C(C)C)c(Sc2cc(Cl)cc(Cl)c2)n1COCCOCOC(=O)C(C)(C)C [Compound 77, 2-[5-(3,5-Dichlorophenylthio)-4-isopropyl-2-methyl-imidazol-1-ylmethoxy]ethyl 2,2-dimethylpropionyloxymethyl ether] | 8 ng/mL (≈ 0.0163 µM) | 
CCn1c(COC(=O)NC(C)=O)nc(C(C)C)c1Sc1cc(Cl)cc(Cl)c1 [Compound 80, 5-(3,5-Dichlorophenylthio)-1-ethyl-4-isopropyl-1H-imidazol-2-ylmethyl acetylcarbamate] | 1 ng/mL (≈ 0.00232 µM) | 
CCCCCCCC(=O)NC(=O)OCc1nc(C(C)C)c(Sc2cc(Cl)cc(Cl)c2)n1CC [Compound 82, 5-(3,5-Dichlorophenylthio)-1-ethyl-4-isopropyl-1H-imidazol-2-ylmethyl octanoylcarbamate] | 8 to 16 ng/mL (≈ 0.0155 to 0.0311 µM) | 
CCn1c(COC(=O)NC(=O)c2ccc(Cl)cc2)nc(C(C)C)c1Sc1cc(Cl)cc(Cl)c1 [Compound 86, 5-(3,5-Dichlorophenylthio)-1-ethyl-4-isopropyl-1H-imidazol-2-ylmethyl 4-chlorobenzoylcarbamate] | 8 ng/mL (≈ 0.0152 µM) | 
CCn1c(COC(=O)NC(=O)c2cc(Cl)cc(Cl)c2)nc(C(C)C)c1Sc1cc(Cl)cc(Cl)c1 [Compound 87, 5-(3,5-Dichlorophenylthio)-1-ethyl-4-isopropyl-1H-imidazol-2-ylmethyl 3,5-dichlorobenzoylcarbamate] | 8 ng/mL (≈ 0.0143 µM) | 
CC(=O)NC(=O)OCc1nc(C(C)C)c(Sc2cc(Cl)cc(Cl)c2)n1Cc1ccncc1 [Compound 90, 5-(3,5-Dichlorophenylthio)-4-isopropyl-1-(4-pyridylmethyl)-1H-imidazol-2-ylmethyl acetylcarbamate] | < 8 ng/mL | 
CCCCCCCC(=O)NC(=O)OCc1nc(C(C)C)c(Sc2cc(Cl)cc(Cl)c2)n1Cc1ccncc1 [Compound 91, 5-(3,5-Dichlorophenylthio)-4-isopropyl-1-(4-pyridylmethyl)-1H-imidazol-2-ylmethyl octanoylcarbamate] | 8 to 16 ng/mL (≈ 0.0139 to 0.0277 µM) | 
CC(C)c1nc(COC(=O)NC(=O)Oc2ccc(-c3ccccc3)cc2)n(Cc2ccncc2)c1Sc1cc(Cl)cc(Cl)c1 [Compound 103, 5-(3,5-Dichlorophenylthio)-4-isopropyl-1-(4-pyridylmethyl)-1H-imidazol-2-ylmethyl 4-biphenyl iminodicaboxylate] |  | 8 ng/mL (≈ 0.0124 µM)
CC(C)c1nc(COC(=O)NC(=O)Oc2cccc3ccccc23)n(Cc2ccncc2)c1Sc1cc(Cl)cc(Cl)c1 [Compound 104, 5-(3,5-Dichlorophenylthio)-4-isopropyl-1-(4-pyridylmethyl)-1H-imidazol-2-ylmethyl 1-naphthyl iminodicaboxylate] |  | < 8 ng/mL
CCCCCCCC(=O)OCc1nc(C(C)C)c(Sc2cc(Cl)cc(Cl)c2)n1CC [Compound 108, 5-(3,5-Dichlorophenylthio)-1-ethyl-4-isopropyl-1H-imidazol-2-ylmethyl octanoate] | 8 ng/mL (≈ 0.017 µM) | 
CC(C)c1nc(COC(N)=O)n(Cc2ccncc2)c1Sc1cc(Cl)cc(Cl)c1 [Compound 111, 5-(3,5-dichlorophenylthio)-4-isopropyl-1-(4-pyridylmethyl)-1H-imidazol-2-ylmethyl carbamate] | 0.9 ng/mL (≈ 0.00199 µM) | 
CC(C)c1nc(COC(=O)NCN2CCOCC2)n(Cc2ccncc2)c1Sc1cc(Cl)cc(Cl)c1 [Compound 113, 5-(3,5-Dichlorophenylthio)-4-isopropyl-1-(4-pyridylmethyl)-1H-imidazol-2-ylmethyl morpholinomethylcarbamate] | 3 to 5 ng/mL (≈ 0.00545 to 0.00908 µM) | 
